Test results published in patent US6110967A, “Epoxysuccinamide derivative or salt thereof” (Taiho Pharmaceuticals Co., Ltd., priority 1997, dated 2000).
Structures can show the parent of a compound that is named as a salt.

Tests used:
Cathepsin L = biological target: T1, Cathepsin L (Rattus norvegicus, UniProt P07154); assay: Determination of inhibition activity against cathepsin L (substrate Z-Phe-Arg-MCA); format: biochemical; conditions: cathepsin L purified from rat liver, pH 5.5, 30° C., 10 minutes
T1 construct: extracted from a rat liver and completely purified; from tissue; host or cells: rat liver
T1 sequence (P07154 114-288 limits assumed): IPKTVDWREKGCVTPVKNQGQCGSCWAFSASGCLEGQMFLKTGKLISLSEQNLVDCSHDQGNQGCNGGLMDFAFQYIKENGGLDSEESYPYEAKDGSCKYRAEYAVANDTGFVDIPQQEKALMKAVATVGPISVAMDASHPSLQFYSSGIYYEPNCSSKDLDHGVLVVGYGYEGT
T1 sequence (P07154 291-334 limits assumed): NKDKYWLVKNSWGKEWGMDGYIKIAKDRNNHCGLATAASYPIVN
Procedure: (§1) Determination of inhibition activity against cathepsin L and cathepsin B:
Cathepsin L that extracted from a rat liver and completely purified in accordance with the method described in J. Biochem., 84, 650-671 (1978) was used, and as a substrate thereof, Z-Phe-Arg-MCA was used.
(§2) Each cathepsin was diluted with a diluent (0.1% Brij 35) to adjust its concentration to 0.3 U (0.1 U: a concentration at which 1.0 nmol of MCA is released per minute at 37° C.). An activator/buffer (340 mM sodium acetate, 60 mM acetic acid, 4 mM disodium EDTA; pH 5.5; 250 μl) was added to the solution (500 μl). After the mixture was incubated for 1 minute at 30° C., a specimen solution of the predetermined concentration and a substrate solution ([…]) were added to conduct a reaction for 10 minutes. The reaction was stopped with a reaction terminator (100 mM sodium monochloroacetate, […] sodium acetate, […] acetic acid; pH 4.3; 1 ml) to determine the fluorescence intensity of aminomethylcoumarin isolated under fluorescence 460 nm in wavelength obtained by excitation at a wavelength of 370 nm using a fluorometer.

Cathepsin B = biological target: T2, Cathepsin B (Rattus norvegicus, UniProt P00787); assay: Determination of inhibition activity against cathepsin B (substrate Z-Arg-Arg-MCA); format: biochemical; conditions: cathepsin B purified from rat liver, pH 5.5, 30° C., 10 minutes
T2 construct: extracted from a rat liver and completely purified; from tissue; host or cells: rat liver
T2 sequence (P00787 80-126 limits assumed): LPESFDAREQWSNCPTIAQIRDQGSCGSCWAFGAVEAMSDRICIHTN
T2 sequence (P00787 129-333 limits assumed): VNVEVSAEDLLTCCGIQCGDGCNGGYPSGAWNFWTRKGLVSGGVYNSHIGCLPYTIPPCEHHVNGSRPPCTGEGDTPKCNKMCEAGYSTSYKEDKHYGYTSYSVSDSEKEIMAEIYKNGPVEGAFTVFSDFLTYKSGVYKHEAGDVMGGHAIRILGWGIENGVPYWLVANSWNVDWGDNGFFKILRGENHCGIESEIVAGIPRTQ
Procedure: as §1
One that extracted from a rat liver and completely purified in accordance with the method described in Biochem. Biophys. Res. Commun., 83, 513-520 (1978) was used as cathepsin B, and as a substrate thereof, Z-Arg-Arg-MCA was used.
as §2

Structure (SMILES) | IC50 (Cathepsin L) [nM] | IC50 (Cathepsin B) [nM] | IC50 (M) Cathepsin B (Cathepsin B)
CN(C)C(=O)[C@H](Cc1ccccc1)NC(=O)[C@H]1O[C@@H]1C(=O)Nc1cccc(CN)c1 [Compound 6, N-{L-3-trans-[3-(Aminomethyl)phenylcarbamoyl]oxirane-2-carbonyl}-L-phenylalanine dimethylamide hydrochloride] | 200 | > 100000 | 
CN(C)C(=O)[C@H](Cc1ccccc1)NC(=O)[C@H]1O[C@@H]1C(=O)Nc1ccc(CN)cc1 [Compound 8, N-{L-3-trans-[4-(Aminomethyl)phenylcarbamoyl]oxirane-2-carbonyl}-L-phenylalanine dimethylamide hydrochloride] | < 100 | > 100000 | 
CN(C)C(=O)[C@H](Cc1ccccc1)NC(=O)[C@H]1O[C@@H]1C(=O)N1CCN(Cc2ccccc2)CC1 [Compound 9, N-[L-3-trans-(4-Benzylpiperazin-1-yl-carbonyl)oxirane-2-carbonyl]-L-phenylalanine dimethylamide] | 850 | > 100000 | 
CN(C)C(=O)[C@H](Cc1ccccc1)NC(=O)[C@H]1O[C@@H]1C(=O)N(CCN)c1ccccc1 [Compound 11, N-{L-3-trans-[N-(2-Aminoethyl)-N-phenylcarbamoyl]oxirane-2-carbonyl}-L-phenylalanine dimethylamide hydrochloride] | 2400 |  | No inhibition
CC(C)(C)OC(=O)NCc1ccc(NC(=O)[C@H]2O[C@@H]2C(=O)N[C@@H](Cc2ccccc2)C(=O)NCCc2ccccc2)cc1 [Compound 12, N-{L-3-trans-[4-(t-Butoxycarbonylaminomethyl)phenylcarbamoyl]oxirane-2-carbonyl}-L-phenylalanine-2-phenylethylamide] | 2.5 | > 10000 | 
CN(C)C(=O)[C@H](Cc1ccccc1)NC(=O)[C@H]1O[C@@H]1C(=O)N1CCN(C(=O)OC(C)(C)C)CC1 [Compound 15, N-[L-3-trans-(4-t-Butoxycarbonylpiperazin-1-yl-carbonyl)-oxirane-2-carbonyl]-L-phenylalanine dimethylamide] | 220 | > 100000 | 
CN(C)C(=O)[C@H](Cc1ccccc1)NC(=O)[C@H]1O[C@@H]1C(=O)NC1CCN(Cc2ccccc2)CC1 [Compound 18, N-{L-3-trans-[(1-Benzylpiperidin-4-yl)carbamoyl]oxirane-2-carbonyl}-L-phenylalanine dimethylamide hydrochloride] | 290 | > 100000 | 
CN(C)C(=O)[C@H](Cc1ccccc1)NC(=O)[C@H]1O[C@@H]1C(=O)NCc1ccc(N)cc1 [Compound 20, N-[L-3-trans-(4-Aminobenzylcarbamoyl)oxirane-2-carbonyl]-L-phenylalanine dimethylamide hydrochloride] | 670 | > 100000 | 
CN(C)C(=O)[C@H](Cc1ccccc1)NC(=O)[C@H]1O[C@@H]1C(=O)NCCNC(=O)OCc1ccccc1 [Compound 22, N-{L-3-trans-[2-(Benzyloxycarbonylamino)ethylcarbamoyl]oxirane-2-carbonyl}-L-phenylalanine dimethylamide] | 470 | > 100000 | 
CCc1ccc(NC(=O)[C@H]2O[C@@H]2C(=O)N[C@@H](Cc2ccccc2)C(=O)N(C)C)cc1 [Compound 29, N-[L-3-trans-(4-Ethylphenylcarbamoyl)oxirane-2-carbonyl]-L-phenylalanine dimethylamide] | 2.2 | > 100000 | 
CN(C)C(=O)[C@H](Cc1ccccc1)NC(=O)[C@H]1O[C@@H]1C(=O)Nc1ccc(C(C)(C)C)cc1 [Compound 37, N-[L-3-trans-(4-t-Butylphenylcarbamoyl)oxirane-2-carbonyl]-L-phenylalanine dimethylamide] | 45 | > 100000 | 
CN(C)C(=O)[C@H](Cc1ccccc1)NC(=O)[C@H]1O[C@@H]1C(=O)NCCc1csc(N)n1 [Compound 39, N-{L-3-trans-[2-(2-Aminothiazol-4-yl)ethylcarbamoyl]oxirane-2-carbonyl}-L-phenylalanine dimethylamide hydrochloride] | 350 | > 100000 | 
Cc1cc(NC(=O)[C@H]2O[C@@H]2C(=O)N[C@@H](Cc2ccccc2)C(=O)N(C)C)no1 [Compound 41] | 33 | > 10000 | 
CN(C)C(=O)[C@H](Cc1ccccc1)NC(=O)[C@H]1O[C@@H]1C(=O)Nc1ccc(CNC(=O)c2ccccc2)cc1 [Compound 44, N-{L-3-trans-[4-(Benzoylaminomethyl)phenylcarbamoyl]oxirane-2-carbonyl}-L-phenylalanine dimethylamide] | 6 | 77000 | 
CN(C)C(=O)[C@H](Cc1ccccc1)NC(=O)[C@H]1O[C@@H]1C(=O)NCCNc1ccc([N+](=O)[O-])cn1 [Compound 46, N-{L-3-trans-[2-(5-Nitropyridin-2-yl)aminoethylcarbamoyl]oxirane-2-carbonyl}-L-phenylalanine dimethylamide] | 34 | 85000 | 
CN(C)C(=O)[C@H](Cc1ccccc1)NC(=O)[C@H]1O[C@@H]1C(=O)Nc1ccc(Oc2ccccc2)cc1 [Compound 48, N-[L-3-trans-(4-Phenoxyphenylcarbamoyl)oxirane-2-carbonyl]-L-phenylalanine dimethylamide] | 60 | 45000 | 
CN(C)C(=O)[C@H](Cc1ccccc1)NC(=O)[C@H]1O[C@@H]1C(=O)NCCc1ccccn1 [Compound 56, N-{L-3-trans-[2-(Pyridin-2-yl)ethylcarbamoyl]oxirane-2-carbonyl}-L-phenylalanine dimethylamide] | 47 | > 10000 | 
CNC(=O)[C@H](Cc1ccccc1)NC(=O)[C@H]1O[C@@H]1C(=O)NCCc1ccccn1 [Compound 62, N-{L-3-trans-[2-(Pyridin-2-yl)ethylcarbamoyl]oxirane-2-carbonyl}-L-phenylalanine methylamide] | < 1 | > 100000 | 
CN(C)C(=O)[C@H](Cc1ccccc1)NC(=O)[C@H]1O[C@@H]1C(=O)NCCc1ccc(N)cc1 [Compound 73, N-{L-3-trans-[2-(4-Aminophenyl)ethylcarbamoyl]oxirane-2-carbonyl}-L-phenylalanine dimethylamide] | 94 |  | No inhibition
CN(C)C(=O)[C@H](Cc1ccccc1)NC(=O)[C@H]1O[C@@H]1C(=O)NCCc1ccc(N)cn1 [Compound 77, N-{L-3-trans-[2-(5-Aminopyridin-2-yl)ethylcarbamoyl]oxirane-2-carbonyl}-L-phenylalanine dimethylamide] | 82 | > 10000 | 
CC(=N)Nc1ccc(CCNC(=O)[C@H]2O[C@@H]2C(=O)N[C@@H](Cc2ccccc2)C(=O)N(C)C)cc1 [Compound 86, N-{L-3-trans-[2-(4-Acetoamidinophenyl)ethylcarbamoyl]oxirane-2-carbonyl}-L-phenylalanine dimethylamide hydrobromide] | 46 | > 10000 | 
CN(C)C(=O)[C@H](Cc1ccccc1)NC(=O)[C@H]1O[C@@H]1C(=O)N1CCN(c2nccc(N)n2)CC1 [Compound 90] | 97 | > 10000 | 
